Data reported in ChEMBL document CHEMBL4371039, “Synthesis and biological evaluation of novel analogues of Gly-l-Pro-l-Glu (GPE) as neuroprotective agents” (Bioorg Med Chem Lett, 2019).
Active and inactive are the calls of the source. The calls are words filed in the database; no cut-off is given here.

Key:
THP-1 [1] = test: Antiinflammatory activity in PMA-differentiated human THP1 cells assessed as reduction in IL-1beta expression at 10 uM preincubated for 4 hrs followed by PMA addition and measured after 20 hrs by Trizol reagent based RT-PCR analysis; type: functional, cell-based
THP-1 [2] = test: Antiinflammatory activity in PMA-differentiated human THP1 cells assessed as reduction in LPS-induced IL-1beta expression at 10 uM preincubated for 2 hrs followed by LPS addition and measured after 24 hrs by Trizol reagent based RT-PCR analysis; type: functional, cell-based
THP-1 [3] = test: Antiinflammatory activity in human THP1 cells assessed as reduction in Abeta (25 to 35 residues)-induced TNFalpha expression at 10 uM preincubated for 2 hrs followed by Abeta (25 to 35 residues) addition and measured after 24 hrs by Trizol reagent based RT-PCR analysis; type: functional, cell-based
THP-1 [4] = test: Antiinflammatory activity in PMA-differentiated human THP1 cells assessed as reduction in TNFalpha expression at 10 uM preincubated for 4 hrs followed by PMA addition and measured after 20 hrs by Trizol reagent based RT-PCR analysis; type: functional, cell-based
THP-1 [5] = test: Cytotoxicity against human THP1 cells assessed as effect on cell viability up to 400 uM measured after 6 to 48 hrs by MTT assay; type: cell-based
THP-1 [6] = test: Antiinflammatory activity in human THP1 cells assessed as reduction in Abeta (25 to 35 residues)-induced IL-1beta expression at 10 uM preincubated for 2 hrs followed by Abeta (25 to 35 residues) addition and measured after 24 hrs by Trizol reagent based RT-PCR analysis; type: functional, cell-based
THP-1 [7] = test: Neuroprotective activity against H2O2-induced cell death in human THP1 cells assessed as cell survival at 10 uM preincubated for 2 hrs followed by H2O2 addition and measured after 24 hrs by MTT assay (reference value: 43%); type: functional; settings: read-out: Survival
THP-1 [8] = test: Antiinflammatory activity in human THP1 cells assessed as reduction in LPS-induced IL-1beta expression at 10 uM preincubated for 2 hrs followed by LPS addition and measured after 24 hrs by Trizol reagent based RT-PCR analysis; type: functional, cell-based
[9] = Solubility of the compound in water; type: physicochemical; settings: buffer
THP-1 [10] = test: Antiinflammatory activity in human THP1 cells assessed as reduction in LPS-induced TNFalpha expression at 10 uM preincubated for 2 hrs followed by LPS addition and measured after 24 hrs by Trizol reagent based RT-PCR analysis; type: functional, cell-based
THP-1 [11] = test: Antiinflammatory activity in PMA-differentiated human THP1 cells assessed as reduction in LPS-induced IL18 expression at 10 uM preincubated for 2 hrs followed by LPS addition and measured after 24 hrs by Trizol reagent based RT-PCR analysis; type: functional, cell-based
THP-1 [12] = test: Antiinflammatory activity in PMA-differentiated human THP1 cells assessed as reduction in MCP1 expression at 10 uM preincubated for 4 hrs followed by PMA addition and measured after 20 hrs by Trizol reagent based RT-PCR analysis; type: functional, cell-based
THP-1 [13] = test: Immunostimulatory activity in PMA-differentiated human THP1 cells assessed as increase in LPS-induced IL-10 expression at 10 uM preincubated for 2 hrs followed by LPS addition and measured after 24 hrs by Trizol reagent based RT-PCR analysis; type: functional, cell-based
[14] = Half life in human plasma; type: ADME, cell-free
THP-1 [15] = test: Antiinflammatory activity in PMA-differentiated human THP1 cells assessed as reduction in IL-18 expression at 10 uM preincubated for 4 hrs followed by PMA addition and measured after 20 hrs by Trizol reagent based RT-PCR analysis; type: functional, cell-based
THP-1 [16] = test: Antiinflammatory activity in human THP1 cells assessed as reduction in LPS-induced IL18 expression at 10 uM preincubated for 2 hrs followed by LPS addition and measured after 24 hrs by Trizol reagent based RT-PCR analysis; type: functional, cell-based
THP-1 [17] = test: Immunostimulatory activity in PMA-differentiated human THP1 cells assessed as increase in LPS-induced IL-4 expression at 10 uM preincubated for 2 hrs followed by LPS addition and measured after 24 hrs by Trizol reagent based RT-PCR analysis; type: functional, cell-based
THP-1 [18] = test: Antiinflammatory activity in human THP1 cells assessed as reduction in Abeta (25 to 35 residues)-induced IL18 expression at 10 uM preincubated for 2 hrs followed by Abeta (25 to 35 residues) addition and measured after 24 hrs by Trizol reagent based RT-PCR analysis; type: functional, cell-based
THP-1 [19] = test: Immunostimulatory activity in PMA-differentiated human THP1 cells assessed as increase in MCP1 expression at 10 uM preincubated for 4 hrs followed by PMA addition and measured after 20 hrs by Trizol reagent based RT-PCR analysis; type: functional, cell-based
THP-1 [20] = test: Antiinflammatory activity in PMA-differentiated human THP1 cells assessed as reduction in IL4-induced CCL18 expression at 10 uM preincubated for 2 hrs followed by IL4 addition and measured after 6 hrs by Trizol reagent based RT-PCR analysis; type: functional, cell-based
THP-1 [21] = test: Immunostimulatory activity in PMA-differentiated human THP1 cells assessed as increase in TNFalpha expression at 10 uM preincubated for 4 hrs followed by PMA addition and measured after 20 hrs by Trizol reagent based RT-PCR analysis; type: functional, cell-based
THP-1 [22] = test: Antiinflammatory activity in PMA-differentiated human THP1 cells assessed as reduction in INFgamma/LPS-induced IL-8 expression at 10 uM preincubated for 2 hrs followed by INFgamma/LPS addition and measured after 6 hrs by Trizol reagent based RT-PCR analysis; type: functional, cell-based
THP-1 [23] = test: Immunostimulatory activity in PMA-differentiated human THP1 cells assessed as increase in IL-1beta expression at 10 uM preincubated for 4 hrs followed by PMA addition and measured after 20 hrs by Trizol reagent based RT-PCR analysis; type: functional, cell-based
THP-1 [24] = test: Antiinflammatory activity in PMA-differentiated human THP1 cells assessed as reduction in IL4-induced IL-10 expression at 10 uM preincubated for 2 hrs followed by IL4 addition and measured after 6 hrs by Trizol reagent based RT-PCR analysis; type: functional, cell-based
THP-1 [25] = test: Immunostimulatory activity in PMA-differentiated human THP1 cells assessed as increase in IL-18 expression at 10 uM preincubated for 4 hrs followed by PMA addition and measured after 20 hrs by Trizol reagent based RT-PCR analysis; type: functional, cell-based
THP-1 [26] = test: Antiinflammatory activity in PMA-differentiated human THP1 cells assessed as reduction in INFgamma/LPS-induced IL-1beta expression at 10 uM preincubated for 2 hrs followed by INFgamma/LPS addition and measured after 6 hrs by Trizol reagent based RT-PCR analysis; type: functional, cell-based
THP-1 [27] = test: Antiinflammatory activity in PMA-differentiated human THP1 cells assessed as reduction in IL4-induced CCL22 expression at 10 uM preincubated for 2 hrs followed by IL4 addition and measured after 6 hrs by Trizol reagent based RT-PCR analysis; type: functional, cell-based
THP-1 [28] = test: Antiinflammatory activity in human THP1 cells assessed as reduction in Abeta (25 to 35 residues)-induced MCP1 expression at 10 uM preincubated for 2 hrs followed by Abeta (25 to 35 residues) addition and measured after 24 hrs by Trizol reagent based RT-PCR analysis; type: functional, cell-based
THP-1 [29] = test: Neuroprotective activity against Abeta (25 to 35 residues)-induced cell death in human THP1 cells assessed as cell survival at 10 uM preincubated for 2 hrs followed by Abeta (25 to 35 residues) addition and measured after 24 hrs by MTT assay (reference value: 40%); type: functional; settings: read-out: Survival

Row | SMILES | Activity (THP-1 [1]) | Activity (THP-1 [3]) | Activity (THP-1 [4]) | Activity (THP-1 [5]) | viability at 10 µM (THP-1 [7]) | Activity (THP-1 [8]) | solubility [9] | Activity (THP-1 [12]) | half-life [14] | Activity (THP-1 [15]) | Activity (THP-1 [16]) | Activity (THP-1 [18]) | further results
1 | NCC(=O)N1CCC[C@H]1C(=O)N[C@@H](CCC(=O)O)C(=O)O.O=C(O)C(F)(F)F.O=C(O)C(F)(F)F | Active | inactive | Active | Non-Toxic | 100% | Active | Soluble | Active | 4.5 h | Active | inactive | inactive | Activity (THP-1 [2]): Active; Activity (THP-1 [6]): Active; Activity (THP-1 [10]): Active; Activity (THP-1 [11]): Active; Activity (THP-1 [13]): Active; Activity (THP-1 [17]): Active
2 | NCCN1CCC[C@H]1C(=O)N[C@@H](CCC(=O)O)C(=O)O | Active | Active | Active |  |  | Active |  | Active |  | Active | inactive | inactive | Activity (THP-1 [19]): Active; Activity (THP-1 [20]): inactive; Activity (THP-1 [21]): Active; Activity (THP-1 [22]): Active; Activity (THP-1 [23]): Active; Activity (THP-1 [24]): inactive; Activity (THP-1 [25]): Active; Activity (THP-1 [26]): Active; Activity (THP-1 [27]): inactive; Activity (THP-1 [28]): Active
3 | NCCN1CCC[C@H]1C(=O)N[C@@H](CCC(=O)O)C(=O)O.O=C(O)C(F)(F)F.O=C(O)C(F)(F)F |  |  |  | Non-Toxic | 90% |  | Soluble |  | 11.8 h |  |  |  | 
4 | NCCN1CCC[C@H]1C(=O)N[C@@H](CCC(=O)O)C(=O)O.O=C(O)C(F)(F)F |  |  |  | Non-Toxic |  |  | Soluble |  | 6.6 h |  |  |  | viability at 10 µM (THP-1 [29]): 76%
